Experimental data as given in ChEMBL document CHEMBL3414571, “The discovery of macrocyclic XIAP antagonists from a DNA-programmed chemistry library, and their optimization to give lead compounds with in vivo antitumor activity” (J Med Chem, 2015).
Numbered stars: 1 amine (or outer) side, 2 acyl side, 3 side chain; on linkers, the order of the positions; unused ones are H or OH. Bridge positions count the residues as written; N and C are the ends. Square brackets hold non-standard residues; d marks the D form. Peptide text beside a SMILES is read from it. * marks the point of attachment. X1 = O=C(O)CN(CCN[*:1])CCn1cc(CCC(=O)[*:2])nn1; NMeA = CN[C@@H](C)C(=O)O; Pra = C#CC[C@H](N)C(=O)O; X2 = [N-]=[N+]=NCC*

How the values were obtained:
[1] = Inhibition of XIAP BIR2 (124 to 240 residues) C202A/C213G mutant (unknown origin) incubated for 60 mins by biotinylated SMAC peptide Alpha-screen assay; set-up: species or system Homo sapiens
[2] = target: E3 ubiquitin-protein ligase XIAP (Homo sapiens, UniProt P98170); test: Inhibition of XIAP BIR3 (241 to 356 residues) (unknown origin) incubated for 60 mins by fluoresceinated modified SMAC peptide based fluorescence polarization assay
BIR2 domain of XIAP = BIR2 domain of XIAP (Homo sapiens, UniProt P98170, C202A/C213G); test: Inhibition of XIAP BIR2-3 (124 to 356 residues) C202A/C213G mutant (unknown origin) in human THP1 cells using fluoresceinated caspase-3 substrate by caspase-3 rescue assay; assay type: cell-based, THP-1
MDA-MB-231 = test: Antiproliferative activity against human MDA-MB-231 cells assessed as inhibition of cell proliferation after 72 hrs by MTS assay; assay type: functional, cell-based; conditions: MDA-MB-231, 72 h
A549 = test: Antiproliferative activity against human A549 cells assessed as inhibition of cell proliferation after 72 hrs by MTS assay; assay type: functional, cell-based; conditions: A549, 72 h
[3] = Antiproliferative activity against human A875 cells assessed as inhibition of cell proliferation after 72 hrs by MTS assay; assay type: functional, cell-based; conditions: A875, 72 h

BIR2 domain of XIAP, sequence (P98170 whole entry C202A/C213G, looked up, the tested form may be a part): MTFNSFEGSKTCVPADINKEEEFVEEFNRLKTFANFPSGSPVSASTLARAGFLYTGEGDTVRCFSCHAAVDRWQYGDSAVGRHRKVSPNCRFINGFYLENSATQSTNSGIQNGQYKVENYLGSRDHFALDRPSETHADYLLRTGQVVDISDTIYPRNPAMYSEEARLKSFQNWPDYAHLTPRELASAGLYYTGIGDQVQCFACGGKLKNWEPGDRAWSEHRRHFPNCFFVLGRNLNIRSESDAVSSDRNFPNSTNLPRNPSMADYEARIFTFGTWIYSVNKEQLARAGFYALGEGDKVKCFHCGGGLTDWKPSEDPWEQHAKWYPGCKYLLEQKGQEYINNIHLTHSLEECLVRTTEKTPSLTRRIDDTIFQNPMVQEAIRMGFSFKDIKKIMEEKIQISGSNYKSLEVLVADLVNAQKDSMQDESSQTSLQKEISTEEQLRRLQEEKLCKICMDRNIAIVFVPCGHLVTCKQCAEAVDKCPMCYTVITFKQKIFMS
E3 ubiquitin-protein ligase XIAP, sequence (P98170 whole entry, looked up, the tested form may be a part): as the sequence (P98170 whole entry C202A/C213G, looked up, the tested form may be a part) above, with A202C, G213C counted along it

Compound	IC50 [1]	IC50 [2]	EC50 (BIR2 domain of XIAP)	IC50 (MDA-MB-231)	IC50 (A549)	IC50 [3]
CN[C@@H](C)C(=O)N[C@H](C(=O)N1C[C@@H]2C[C@H]1C(=O)N[C@@H](Cc1ccccc1)C(=O)N[C@H](C(=O)O)Cc1ccc(cc1)NC(=O)CCc1cn(nn1)[C@H]1C[C@@H](C(=O)N[C@@H](Cc3ccccc3)C(=O)N[C@H](C(=O)O)Cc3ccc(cc3)NC(=O)CCc3cn2nn3)N(C(=O)[C@@H](NC(=O)[C@H](C)NC)C(C)C)C1)C(C)C	6 nM	47 nM	70 nM	7900 nM	> 25000 nM	
CN[C@@H](C)C(=O)N[C@H](C(=O)N1C[C@@H]2C[C@H]1C(=O)N[C@@H](Cc1ccccc1)C(=O)N[C@H](C(=O)O)Cc1ccc(cc1)NC(=O)CCc1cn2nn1)C(C)C	1970 nM	110 nM	6700 nM			
C#CC[C@H](NC(=O)[C@H](C)NC)C(=O)N1CCC[C@H]1C(=O)N[C@@H](Cc1ccccc1)C(=O)N[C@@H](Cc1ccc(OCCN=[N+]=[N-])cc1)C(=O)O (H-[NMeA][Pra]PFY(X2)-OH)	540 nM	180 nM				
CN[C@@H](C)C(=O)N[C@H](C(=O)N1C[C@@H]2C[C@H]1C(=O)N[C@@H](Cc1ccccc1)C(=O)N[C@H](C(=O)O)Cc1ccc(cc1)OCc1cn(nn1)[C@H]1C[C@@H](C(=O)N[C@@H](Cc3ccccc3)C(=O)N[C@H](C(=O)O)Cc3ccc(cc3)OCc3cn2nn3)N(C(=O)[C@@H](NC(=O)[C@H](C)NC)C(C)C)C1)C(C)C	3 nM	68 nM	45 nM	2940 nM	> 25000 nM	4220 nM
CN[C@@H](C)C(=O)N[C@H](C(=O)N1C[C@@H]2C[C@H]1C(=O)N[C@@H](Cc1ccc3ccccc3c1)C(=O)N[C@H](C(=O)O)Cc1ccc(cc1)OCc1cn2nn1)C(C)(C)C	827 nM	214 nM				
CN[C@@H](C)C(=O)N[C@H](C(=O)N1C[C@@H]2C[C@H]1C(=O)N[C@@H](Cc1ccc3ccccc3c1)C(=O)N[C@H](C(=O)O)Cc1ccc(cc1)OCc1cn(nn1)[C@H]1C[C@@H](C(=O)N[C@@H](Cc3ccc4ccccc4c3)C(=O)N[C@H](C(=O)O)Cc3ccc(cc3)OCc3cn2nn3)N(C(=O)[C@@H](NC(=O)[C@H](C)NC)C(C)C)C1)C(C)C	333 nM	40 nM	59 nM	82 nM	> 25000 nM	218 nM

Continued, in another order:

IC50 [1]	IC50 [2]	EC50 (BIR2 domain of XIAP)	IC50 (MDA-MB-231)	IC50 (A549)	Compound	IC50 [3]
4870 nM	366 nM				CN[C@@H](C)C(=O)N[C@H]1Cc2ccc(cc2)OCc2cn(nn2)CCCOc2ccc(cc2)C[C@@H](C(=O)O)NC(=O)[C@H](Cc2ccccc2)NC(=O)[C@@H]2CCCN2C1=O	
> 18800 nM	900 nM				CN[C@@H](C)C(=O)N[C@H]1CCCCNC(=O)CCc2cn(nn2)CCN(CC(=O)O)CCNC(=O)[C@H](Cc2ccccc2)NC(=O)[C@@H]2CCCN2C1=O (H-[NMeA]KPF[X1]; lactam 2-C)	
> 18800 nM	1360 nM				CN[C@@H](C)C(=O)N[C@H]1CCCCNC(=O)CCc2cn(nn2)CCCC[C@@H](C(=O)O)NC(=O)[C@H](Cc2ccccc2)NC(=O)[C@@H]2CCCN2C1=O	
> 18800 nM	232 nM				CN[C@@H](C)C(=O)N[C@H](C(=O)N1C[C@@H]2C[C@H]1C(=O)N[C@@H](Cc1ccccc1)C(=O)N[C@@H](C(=O)O)Cc1ccc(cc1)NC(=O)CCc1cn2nn1)C(C)C	
